From patent US10143678B1, “Method of treatment of preventing hyperglycemia complications” (Sunway Biotech Co., LTD, priority 2015, dated 2018)
Marks after values point to notes of the source that are not given here.

Experiments:
Type in all cases: in vivo
[1] = tested on: SD rats fed with high fat and fructose diet; assay: Liver, kidney and adipose tissue weight after sacrifice; conditions: HFFD-fed SD rats, oral 10 weeks
Source text: (§1) The present invention provides a method of treatment of preventing hyperglycemia complications using at least one pharmaceutical made from a red mold product, wherein the red mold product is a red mold rice or a red mold Dioscorea, and the pharmaceutical is an extract obtained from the red mold product. The extract is Monascin, Ankaflavin, or a combination of Monascin and Ankaflavin. […] Moreover, in order to verify the practicability of the method of treatment of preventing hyperglycemia complications proposed by the present invention, a particularly-arranged of animal experiment is completed by inventors. After 1-week pre-feeding, several SD rats are divided into 9 experimental groups for carrying out 10-week animal experiment.
Insulin is used for impelling the absorption and utilization of blood glucose in liver, muscle and adipose tissue. Because white adipose tissue (WAT) is used for storing triglycerides (TG) transformed from blood glucose, a large amount of accumulation of adipocytes would cause the occurrence of inflammatory response so as to induce lipolysis action. Therefore, the inflammatory-induced lipolysis action would produce a large amount of glycerin and free fatty acid (FFA), so as to aggravate the production of Hyperglycemia, fatty liver, and high blood ketone. Based on above reasons, the effects provided by the different test samples on liver, kidney, and adipose tissue weight of the rats are needed to be determined.
For carrying out the determination of liver, kidney, and adipose tissue weight, it needs to sacrifice the rats. After sacrificing the rat, blood to be determined is collected from the intraperitoneal of the rat by using syringes, and then the collected blood are disposed into a 2-mL microcentrifuge tube. After staying for 5 minutes, the microcentrifuge tube carrying with blood is treated with a centrifugation process, and then the serum of the blood is stored in an environment with −20° C. After that, the liver, kidney, and adipose tissue are taken out of the rat.

[2] = tested on: SD rats fed with high fat and fructose diet; assay: Oral glucose tolerance test (OGTT), AUC of blood glucose; conditions: FIG. 2, vs HFFD group, oral 10 weeks, 1-fold dose mg/kg bw/day: MF 78.06, RMD 104.17, Monascin 0.31 (MS1X), Ankaflavin 0.16 (AK1X), MS-AK 0.31 + 0.16
Source text: as §1

[3] = tested on: adiponectin; assay: Adiponectin expression in adipose tissue; conditions: FIG. 3, vs HFFD group; HFFD-fed SD rats, oral 10 weeks; 1-fold dose mg/kg bw/day: MF 78.06, RMD 104.17, Monascin 0.31 (MS1X), Ankaflavin 0.16 (AK1X), MS-AK 0.31 + 0.16
Source text: as §1

[4] = tested on: Reactive Oxygen Species (ROS); assay: ROS concentration in liver; conditions: FIG. 4, vs HFFD group; HFFD-fed SD rats, oral 10 weeks; 1-fold dose mg/kg bw/day: MF 78.06, RMD 104.17, Monascin 0.31 (MS1X), Ankaflavin 0.16 (AK1X), MS-AK 0.31 + 0.16
Source text: as §1

[5] = tested on: TNF-α; assay: TNF-α expression in adipose tissue; conditions: FIG. 5, vs HFFD group; HFFD-fed SD rats, oral 10 weeks; 1-fold dose mg/kg bw/day: MF 78.06, RMD 104.17, Monascin 0.31 (MS1X), Ankaflavin 0.16 (AK1X), MS-AK 0.31 + 0.16
Source text: as §1

[6] = tested on: GLUT-2; assay: GLUT-2 expression in adipose tissue; conditions: FIG. 6, vs HFFD group; HFFD-fed SD rats, oral 10 weeks; 1-fold dose mg/kg bw/day: MF 78.06, RMD 104.17, Monascin 0.31 (MS1X), Ankaflavin 0.16 (AK1X), MS-AK 0.31 + 0.16
Source text: as §1

[7] = tested on: GLUT-4; assay: GLUT-4 expression in adipose tissue; conditions: FIG. 7, vs HFFD group; HFFD-fed SD rats, oral 10 weeks; 1-fold dose mg/kg bw/day: MF 78.06, RMD 104.17, Monascin 0.31 (MS1X), Ankaflavin 0.16 (AK1X), MS-AK 0.31 + 0.16
Source text: as §1

[8] = tested on: IL-6; assay: IL-6 expression in adipose tissue; conditions: FIG. 8, vs HFFD group; HFFD-fed SD rats, oral 10 weeks; 1-fold dose mg/kg bw/day: MF 78.06, RMD 104.17, Monascin 0.31 (MS1X), Ankaflavin 0.16 (AK1X), MS-AK 0.31 + 0.16
Source text: as §1
(§2) Please refer to FIG. 8 and FIG. 9, where a statistical bar graph of IL-6 expression in adipose tissue and a statistical bar graph of IL-1β expression in adipose tissue are provided.

[9] = tested on: IL-1β; assay: IL-1β expression in adipose tissue; conditions: FIG. 9, vs HFFD group; HFFD-fed SD rats, oral 10 weeks; 1-fold dose mg/kg bw/day: MF 78.06, RMD 104.17, Monascin 0.31 (MS1X), Ankaflavin 0.16 (AK1X), MS-AK 0.31 + 0.16
Source text: as §1, §2

[10] = tested on: HIF-1α; assay: HIF-1α expression in adipose tissue; conditions: FIG. 10, vs HFFD group; HFFD-fed SD rats, oral 10 weeks; 1-fold dose mg/kg bw/day: MF 78.06, RMD 104.17, Monascin 0.31 (MS1X), Ankaflavin 0.16 (AK1X), MS-AK 0.31 + 0.16
Source text: as §1

[11] = tested on: SD rats fed with high fat and fructose diet; assay: Histomorphology of liver slices (fatty liver); conditions: FIG. 11, vs HFFD group, oral 10 weeks, 1-fold dose mg/kg bw/day: MF 78.06, RMD 104.17, Monascin 0.31 (MS1X), Ankaflavin 0.16 (AK1X), MS-AK 0.31 + 0.16
Source text: as §1

[12] = 1-fold dose mg/kg bw/day: MF 78.06, RMD 104.17, Monascin 0.31 (MS1X), Ankaflavin 0.16 (AK1X), MS-AK 0.31 + 0.16
[13] = 5-fold dose mg/kg bw/day: Monascin 1.56 (MS5X), Ankaflavin 0.78 (AK5X)

Compound | Kidney weight [1, 12] | Occupying percentage of summation of the weights of peri-adrenal and epididymal adipose tissue in body Fat [1, 12] | Kidney weight [1, 13] | Occupying percentage of summation of the weights of peri-adrenal and epididymal adipose tissue in body Fat [1, 13] | AUC (area under curve) of blood glucose [2] | percentage of adiponectin expression in adipose tissue [3] | ROS level in liver [4] | percentage of TNF-α expression in adipose tissue [5] | percentage of GLUT-2 expression in adipose tissue [6] | percentage of GLUT-4 expression in adipose tissue [7] | percentage of IL-6 expression in adipose tissue [8] | percentage of IL-1β expression in adipose tissue [9] | percentage of HIF-1α expression in adipose tissue [10] | formation of fatty liver [11]
C/C=C/C1=CC2=C(CO1)C(=O)[C@]1(C)OC(=O)[C@H](C(=O)CCCCCCC)[C@H]1C2 [Ankaflavin] | 3.72 ± 0.31^ab | 4.32 ± 0.59^b % | 3.55 ± 0.29^ab | 4.30 ± 0.53^b % | – | – | – | – | – | – | – | – | – | –
C/C=C/C1=CC2=C(CO1)C(=O)[C@]1(C)OC(=O)[C@H](C(=O)CCCCC)[C@H]1C2 [Monascin] | 3.61 ± 0.20^ab | 5.12 ± 0.84^bc % | 3.71 ± 0.40^ab | 4.97 ± 0.80^bc % | – | – | – | – | – | – | – | – | – | –
CN(C)C(=N)N=C(N)N [MF, Metformin] | 3.64 ± 0.26^ab | 4.27 ± 1.43^bc % | – | – | obviously lower | largely enhanced | largely lowered | largely reduced | largely enhanced | largely enhanced | largely lowered | largely lowered | largely lowered | alleviated or solved
